“And” between values parts separate entries of the source, which are not always exact repeats. Identical values can stand only once.
Test system: DMS 114 tumor spheroids, viability % test/control
Assay: Anticancer human tumor DMS 114 cell line growth inhibition;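 note: spheroids exposed to compounds for 7 days before read-out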;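 for viability, T/C: luminescence used as a proxy for viable cells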
Conditions: spheroids with HUVEC and MSC; for viability, T/C: stronger effect = lower value
Text: Multicellular complex tumor spheroid response to DNA repair inhibitors in combination with DNA-damaging drugs
This study explores the anticancer activities of DNA-damaging drugs and inhibitors of DNA damage repair, both as single agents and in combinations. Complex tumor spheroids comprised of malignant cells, endothelial cells and mesenchymal stem cells served as an in vitro model for human solid tumors. This model system incorporates physiologically relevant features and patient-derived or established malignant cell lines with clinically relevant genetic alterations from many tumor types. Twenty-six patient-derived or established malignant cell lines were evaluated representing sarcoma, melanoma, small cell lung cancer (SCLC), non-small cell lung cancer (NSCLC), as well as bladder, ovarian and pancreatic cancers. The concentration ranges selected for each drug and investigational agent were based upon clinically achievable concentrations if the clinical Cmax of the agent was known.
Compounds. The drugs and compounds olaparib (NSC753686), talazoparib (NSC767125), berzosertib (NSC777718), elimusertib (NSC800525), nedisertib (NSC802822), VX-984 (NSC792969), AZD-1390 (NSC803789), temozolomide (NSC362856), topotecan (NSC609699), trabectedin (NSC813783), staurosporine (NSC755774), and gemcitabine (NSC613327) were obtained from the National Cancer Institute (NCI) Developmental Therapeutics Program Chemical Repository. The FDA-approved anticancer drug set is available from the Developmental Therapeutics Program at https://dtp.cancer.gov/organization/dscb/obtaining/available_plates.htm. […] The stock solutions were prepared in dimethyl sulfoxide (DMSO, Sigma-Aldrich, St. Louis, MO, cat. D2650) at 400-fold the tested concentration and stored at -70 degrees C. Prior to their use, the stock solutions were diluted in fresh medium and the final DMSO concentration in the assay was 0.25% (v/v). All drugs and investigational agents were tested over a range starting from a high concentration at or near the clinical Cmax and decreasing in half-log increments. If the clinical Cmax for an agent had not been determined, the highest concentration tested was 10 microM.
Cell Lines. The patient-derived cancer cell (PDC) lines: 156681-154-R-J1-PDC, 283228-195-R-J1-PDC, 287954-098-R-J1-PDC, 292921-168-R-J2-PDC, 349418-098-R-PDC, 425362-245-T-J1-PDC, 556581-035-R-J1-PDC, and BL0293-F563-PDC were received from the NCI Patient-Derived Models Repository (PDMR, https://pdmr.cancer.gov). The established cell lines HS-SY-2 (RRID:CVCL_8719), MPNST, and SYO-1 (RRID:CVCL_7146) were obtained from the Sloan Kettering Institute. The alveolar soft parts sarcoma cell line ASPS-1 (RRID:CVCL_S738) was established at the NCI and grown from internal seed stocks. The following established cell lines were purchased from the American Type Culture Collection (ATCC, Manassas, VA): G-401 (ATCC, cat. CRL-1441, RRID:CVCL_0270), SW982 (ATCC, cat. HTB-93, RRID:CVCL_1734), VA-ES-BJ (ATCC, cat. CRL-2138, RRID:CVCL_1785), NCI-H719 (ATCC, cat. CRL-5837, RRID:CVCL_1582), NCI-H196 (ATCC, cat. CRL-5823, RRID:CVCL_1509), NCI-H841 (ATCC, cat. CRL-5845, RRID:CVCL_1595), NCI-H1618 (ATCC, cat. CRL-5879, RRID:CVCL_1480), NCI-H1876 (ATCC, cat. CRL-5902, RRID:CVCL_1503), DMS 114 (ATCC, cat. CRL-2066; RRID:CVCL_1174), NCI-H211 (ATCC, cat. CRL-5824; RRID:CVCL_1529), and SW 1271 (ATCC, cat. CRL-2177, RRID:CVCL_1716). The small cell lung cancer cell line COR-L88 was purchased from Sigma-Aldrich (cat. 92031917-1VL, RRID:CVCL_1141). The non-small cell lung cancer cell lines NCI-H226 (RRID:CVCL_1544) and NCI-H322M (RRID:CVCL_1557) were established at the NCI and grown from internal seed stocks. Pooled donor human umbilical vein endothelial cells (HUVEC, Lonza, cat. CC-2519) and human mesenchymal stem cells (hMSC, Lonza, cat. PT-2501) were purchased from Lonza (Walkersville, MD).
Cell Culture. All cells were maintained in an incubator at 37 degrees C and 5% CO2 with 95% humidity. […]

CC(C)n1c(=O)n(C)c2cnc3cc(F)c(-c4ccc(OCCCN5CCCCC5)nc4)cc3c21
viability, T/C (compound 0.0316 µM): 106% and 99.8% and 105%
viability, T/C (compound 0.1 µM): 104% and 103% and 107%
viability, T/C (compound 0.316 µM): 101% and 97.2% and 106%
viability, T/C (compound 1 µM): 97.8% and 102% and 93.4%
viability, T/C (compound 3.16 µM): 70.1% and 88% and 73.8%
viability, T/C (compound 10 µM): 22.5% and 34.4% and 22.6%
IC50 (curve of compound): 5.15 µM and 7.21 µM and 5.37 µM

Cc1cc(C)c(CNC(=O)c2cc(-c3ccc(CN4CCOCC4)cc3)cc3c2cnn3C2CCCC2)c(=O)[nH]1 + Cn1nnc2c(C(N)=O)ncn2c1=O
IC50 (curve of first compound, second compound 1 µM): > 10 µM
IC50 (curve of first compound, second compound 3.16 µM): > 10 µM
IC50 (curve of first compound, second compound 10 µM): > 10 µM
IC50 (curve of first compound, second compound 31.6 µM): > 10 µM
IC50 (curve of first compound, second compound 100 µM): > 10 µM
viability, T/C (second compound 1 µM, first compound 0.0316 µM): 100%
viability, T/C (second compound 1 µM, first compound 0.1 µM): 103%
viability, T/C (second compound 1 µM, first compound 0.316 µM): 104%
viability, T/C (second compound 1 µM, first compound 1 µM): 110%
viability, T/C (second compound 1 µM, first compound 3.16 µM): 110%
viability, T/C (second compound 1 µM, first compound 10 µM): 64.3%
viability, T/C (second compound 3.16 µM, first compound 0.0316 µM): 110%
viability, T/C (second compound 3.16 µM, first compound 0.1 µM): 108%
viability, T/C (second compound 3.16 µM, first compound 0.316 µM): 108%
viability, T/C (second compound 3.16 µM, first compound 1 µM): 114%
viability, T/C (second compound 3.16 µM, first compound 3.16 µM): 120%
viability, T/C (second compound 3.16 µM, first compound 10 µM): 69.3%
viability, T/C (second compound 10 µM, first compound 0.0316 µM): 110%
viability, T/C (second compound 10 µM, first compound 0.1 µM): 106%
viability, T/C (second compound 10 µM, first compound 0.316 µM): 111%
viability, T/C (second compound 10 µM, first compound 1 µM): 115%
viability, T/C (second compound 10 µM, first compound 3.16 µM): 120%
viability, T/C (second compound 10 µM, first compound 10 µM): 65.9%
viability, T/C (second compound 31.6 µM, first compound 0.0316 µM): 113%
viability, T/C (second compound 31.6 µM, first compound 0.1 µM): 107%
viability, T/C (second compound 31.6 µM, first compound 0.316 µM): 109%
viability, T/C (second compound 31.6 µM, first compound 1 µM): 111%
viability, T/C (second compound 31.6 µM, first compound 3.16 µM): 103%
viability, T/C (second compound 31.6 µM, first compound 10 µM): 65.1%
viability, T/C (second compound 100 µM, first compound 0.0316 µM): 103%
viability, T/C (second compound 100 µM, first compound 0.1 µM): 103%
viability, T/C (second compound 100 µM, first compound 0.316 µM): 98.8%
viability, T/C (second compound 100 µM, first compound 1 µM): 90.1%
viability, T/C (second compound 100 µM, first compound 3.16 µM): 80.4%
viability, T/C (second compound 100 µM, first compound 10 µM): 51.6%
